# Measurements: patent US4058624A, “Broad spectrum antibacterial compositions containing tris (hydroxymethyl)-aminomethane and diphenyl and loweralkyl substituted diphenyl polyamines” (Merck & Co., Inc., priority 1976, dated 1977)
# Assay: Acute toxicity, oral LD50 mice (Table I)
# Settings: mouse, in vivo
# Text: The low toxicity of these compounds makes them especially attractive for use where contact with skin surfaces or possible ingestion renders the use of irritating or toxic materials inadvisable.
row,Structure (SMILES),LD50 [mg/kg]
1,"Cc1cc(C)c(CCC(CCc2c(C)cc(C)cc2C)NCCCNCCCN)c(C)c1.Cl.Cl.Cl [1-[1,5-di-(2,4,6-trimethylphenyl)-3-pentyl]-1,5,9-triazanonane trihydrochloride]",1150
2,"CC(C)(C)c1ccc(CCCC(CCCc2ccc(C(C)(C)C)cc2)NCCCNCCCNCCCN)cc1.Cl.Cl.Cl.Cl [1-[1,7-bis-(4-t-butylphenyl)-4-heptyl]-1,5,9,13-tetrazatridecane tetrahydrochloride]",1550
3,"Cc1ccc(C(C)(C)C)cc1CCCC(CCCc1cc(C(C)(C)C)ccc1C)NCCNCCNCCN.Cl.Cl.Cl.Cl [1-[1,7-di-(2-methyl-5-t-butylphenyl)-4-heptyl]-1,4,7,10-tetrazadecane tetrahydrochloride]",2070
4,"Cc1ccc(C(C)(C)C)cc1CCCC(CCCc1cc(C(C)(C)C)ccc1C)NCCCNCCCN.Cl.Cl.Cl [1-[1,7-di-(2-methyl-5-t-butylphenyl)-4-heptyl]-1,5,9-triazanonane trihydrochloride]",1650
